Assay [1] concerns the target T1, GTPase HRas (Homo sapiens, UniProt P01112). Kind of assay: Inhibition of nucleotide exchange process of oncogenic Ras at concentration 50 uM.
Assay [2] concerns the target T1, GTPase HRas. As to the kind of experiment: Inhibition of nucleotide exchange process of oncogenic Ras in vitro.
In assay [3] the target is T1, GTPase HRas. Kind of assay: In vitro for inhibition of nucleotide exchange process of oncogenic Ras.

T1 sequence (P01112 whole entry, looked up): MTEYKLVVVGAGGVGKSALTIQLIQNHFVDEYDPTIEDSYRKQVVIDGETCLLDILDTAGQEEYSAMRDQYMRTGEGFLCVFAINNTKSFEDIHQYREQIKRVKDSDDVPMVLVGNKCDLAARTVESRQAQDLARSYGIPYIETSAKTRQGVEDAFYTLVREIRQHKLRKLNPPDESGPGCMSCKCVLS

In assay [1], `COc1ccc2nc3c(c(C)nn3[C@@H]3O[C@H](COC(C)=O)[C@@H](OC(C)=O)[C@H]3OC(C)=O)c(Cl)c2c1` showed an inhibition of 3%. Regarding `COc1ccc2nc3c(c(C)nn3[C@H]3CN(Sc4ccc([N+](=O)[O-])cc4)C[C@@H](C/C=C/C(=O)c4ccccc4)O3)c(Cl)c2c1`, in assay [2], the concentration for half-maximal inhibition (IC50) came to 7.4 µM. `COc1ccc2nc3c(c(C)nn3[C@@H]3O[C@H](OCc4ccccc4)[C@@H](OCc4ccccc4)[C@H]3OCc3ccccc3)c(Cl)c2c1` showed an inhibition in assay [1] of 35%. On to `COc1ccc2nc3c(c(C)nn3[C@H]3CNC[C@@H](CO)O3)c(Cl)c2c1`, for which the inhibition in assay [1] amounted to 0%.

Take `COc1ccc2nc3c(c(C)nn3[C@H]3C=C[C@@H](COC(=O)c4ccccc4)O3)c(Cl)c2c1`: in assay [2], the IC50 was 80 µM.

For the molecule `COc1ccc2nc3c(c(C)nn3[C@H]3CN(Sc4ccccc4[N+](=O)[O-])C[C@@H](CO[Si](C)(C)C(C)(C)C)O3)c(Cl)c2c1`, the concentration for half-maximal inhibition (IC50) in assay [2] came to 1 µM. The same measure, in the same setting: the same measure for `COc1ccc2nc3c(c(C)nn3[C@@H]3O[C@H](COC(=O)c4ccccc4)[C@H]4OC(=S)O[C@H]43)c(Cl)c2c1`: 15 µM. Turning to `COc1ccc2nc3c(c(C)nn3[C@H]3C=C[C@@H](OCCC(=O)c4ccccc4)O3)c(Cl)c2c1`, the inhibition in assay [1] is 25%. Turning to `COc1ccc2nc3c(c(C)nn3[C@H]3C=C[C@@H](O/C=C/C(=O)c4ccccc4)O3)c(Cl)c2c1`, it took 35 µM to reach half-maximal inhibition in assay [2] (IC50). For `CCOC(=O)/C=C/C[C@@H]1CN(Sc2ccc([N+](=O)[O-])cc2)C[C@H](n2nc(C)c3c(Cl)c4cc(OC)ccc4nc32)O1`, in assay [1], the inhibition is 64%. Molecule `COc1ccc2nc3c(c(C)nn3[C@H]3CN(S(=O)(=O)c4ccc([N+](=O)[O-])cc4)C[C@@H](CO[Si](C)(C)C(C)(C)C)O3)c(Cl)c2c1` had an IC50 in assay [2] of 5 µM. `COc1ccc2nc3c(c(C)nn3[C@@H]3O[C@H](COC(=O)c4ccc([N+](=O)[O-])cc4)[C@@H](OC(=O)c4ccc([N+](=O)[O-])cc4)[C@H]3OC(=O)c3ccc([N+](=O)[O-])cc3)c(Cl)c2c1` gave an inhibition in assay [1] of 59%. In assay [2], `COc1ccc2nc3c(c(C)nn3[C@@H]3O[C@H](O/C=C/C(=O)c4ccccc4)[C@@H](O)[C@H]3O)c(Cl)c2c1` displayed an IC50 of 10 µM.

Consider `CCOC(=O)/C=C/C[C@@H]1CN(Sc2ccccc2[N+](=O)[O-])C[C@H](n2nc(C)c3c(Cl)c4cc(OC)ccc4nc32)O1`, for which, in assay [2], the IC50 turned out to be 16 µM. Against the preceding molecule, the IC50 is about 1.6-fold higher. As for `COc1ccc2nc3c(c(C)nn3[C@@H]3O[C@H](O/C=C/C(=O)c4ccccc4)[C@H]4OC(C)(C)O[C@H]43)c(Cl)c2c1`, the inhibition in assay [1] is 53%. For the molecule `COc1ccc2nc3c(c(C)nn3[C@H]3CN(S(=O)(=O)c4ccc(NC(C)=O)cc4)C[C@@H](CO[Si](C)(C)C(C)(C)C)O3)c(Cl)c2c1`, in assay [2], the midpoint of inhibition, the IC50, lay at 27 µM. For `COc1ccc(C(=O)OC[C@H]2O[C@@H](n3nc(C)c4c(Cl)c5cc(OC)ccc5nc43)[C@H](OC(=O)c3ccc(OC)cc3)[C@@H]2OC(=O)c2ccc(OC)cc2)cc1`, in assay [1], the inhibition was determined as 44%.

For the molecule `COc1ccc2nc3c(c(C)nn3[C@@H]3O[C@H](COC(=O)Cc4ccccc4)[C@@H](OC(=O)Cc4ccccc4)[C@H]3OC(=O)Cc3ccccc3)c(Cl)c2c1`, the inhibition in assay [1] was 62%. `COc1ccc2nc3c(c(C)nn3[C@@H]3O[C@H](COC(=O)c4ccccc4)[C@@H](OC(C)=O)[C@H]3OC(C)=O)c(Cl)c2c1` displayed an inhibition in assay [1] of 44%. The molecule `COc1ccc2nc3c(c(C)nn3[C@H]3CN(Sc4ccc([N+](=O)[O-])cc4)C[C@@H](C/C=C/C(C)=O)O3)c(Cl)c2c1` returned an IC50 in assay [2] of 3 µM. The molecule `COc1ccc2nc3c(c(C)nn3[C@@H]3O[C@H](COC(=O)c4ccccc4)[C@@H](OC(=O)c4ccccc4)[C@H]3OC(=O)c3ccccc3)c(Cl)c2c1` registered a concentration for half-maximal inhibition (IC50) in assay [3] of 10 µM. With `COc1ccc2nc3c(c(C)nn3[C@H]3CN(S(=O)(=O)c4ccc([N+](=O)[O-])cc4)C[C@@H](C/C=C/C(=O)c4ccccc4)O3)c(Cl)c2c1`, in assay [2], the IC50 stood at 7 µM. Regarding `COc1ccc2nc3c(c(C)nn3[C@H]3CN(S(=O)(=O)c4ccccc4)C[C@@H](CO)O3)c(Cl)c2c1`, in assay [2], the IC50 was determined as 12 µM. Compared with the last molecule, the IC50 is about 1.7-fold higher. As for `COc1ccc2nc3c(c(C)nn3[C@H]3CN(Sc4ccccc4[N+](=O)[O-])C[C@@H](C/C=C/C(C)=O)O3)c(Cl)c2c1`, in assay [1], the inhibition is 88%.

In the case of `COc1ccc2nc3c(c(C)nn3[C@@H]3O[C@H](COC(=O)C(C)C)[C@@H](OC(=O)C(C)C)[C@H]3OC(=O)C(C)C)c(Cl)c2c1`, the inhibition in assay [1] was 33%. `COc1ccc2nc3c(c(C)nn3[C@H]3CN(Sc4ccc([N+](=O)[O-])cc4)C[C@@H](CO[Si](C)(C)C(C)(C)C)O3)c(Cl)c2c1` gave an IC50 in assay [2] of 50 µM. In assay [1], `COc1ccc2nc3c(c(C)nn3[C@@H]3O[C@H](COC(=O)c4cccnc4)[C@@H](OC(=O)c4cccnc4)[C@H]3OC(=O)c3cccnc3)c(Cl)c2c1` came in with an inhibition of 33%. As for `COc1ccc2nc3c(c(C)nn3[C@@H]3O[C@H](COC(=O)c4ccccc4)[C@@H](OCc4ccccc4)[C@H]3OCc3ccccc3)c(Cl)c2c1`, in assay [1], the inhibition worked out at 53%. `COc1ccc2nc3c(c(C)nn3[C@H]3CN(Sc4ccccc4[N+](=O)[O-])C[C@@H](C/C=C/C(=O)c4ccccc4)O3)c(Cl)c2c1` yielded an IC50 in assay [2] of 4.7 µM. In the case of `COc1ccc2nc3c(c(C)nn3[C@@H]3O[C@H](COC(=O)c4ccccc4)[C@@H](O)[C@H]3O)c(Cl)c2c1`, in assay [1], the inhibition stood at 16%. `COc1ccc2nc3c(c(C)nn3[C@@H]3O[C@H](COC(=O)c4ccoc4)[C@@H](OC(=O)c4ccoc4)[C@H]3OC(=O)c3ccoc3)c(Cl)c2c1`: the inhibition in assay [1] was 49%.

In the case of `COc1ccc2nc3c(c(C)nn3[C@H]3C=C[C@@H](OC(O)CC(=O)c4ccccc4)O3)c(Cl)c2c1` (stereo not given in full), the inhibition in assay [1] amounted to 48%. Consider `COc1ccc2nc3c(c(C)nn3[C@@H]3O[C@H](OC(O)CC(=O)c4ccccc4)[C@H]4OC(=S)O[C@H]43)c(Cl)c2c1` (stereo not given in full), for which the IC50 in assay [2] was determined as 1.5 µM. `COc1ccc2nc3c(c(C)nn3[C@@H]3O[C@H](COC(=O)c4ccco4)[C@@H](OC(=O)c4ccco4)[C@H]3OC(=O)c3ccco3)c(Cl)c2c1` displayed an IC50 in assay [2] of 10.5 µM.

In turn, `COc1ccc2nc3c(c(C)nn3[C@H]3CN(S(=O)(=O)c4ccccc4)C[C@@H](COC(=O)c4ccccc4)O3)c(Cl)c2c1` registered an inhibition in assay [1] of 47%. For the molecule `COc1ccc2nc3c(c(C)nn3[C@H]3CC[C@@H](COC(=O)c4ccccc4)O3)c(Cl)c2c1`, the inhibition in assay [1] is 38%. Consider `COc1ccc2nc3c(c(C)nn3[C@H]3CN(S(=O)(=O)c4ccc([N+](=O)[O-])cc4)C[C@@H](CO)O3)c(Cl)c2c1`, for which the IC50 in assay [2] came to 8 µM. In other words, the single-digit micromolar range. The same measure, in the same setting: the same measure for `COc1ccc2nc3c(c(C)nn3[C@H]3CN(Sc4ccc([N+](=O)[O-])cc4)C[C@@H](CO)O3)c(Cl)c2c1`: 6.7 µM; for `COc1ccc2nc3c(c(C)nn3[C@H]3CN(Sc4ccccc4[N+](=O)[O-])C[C@@H](CO)O3)c(Cl)c2c1`: 14 µM; for `COc1ccc2nc3c(c(C)nn3[C@H]3CN(S(=O)(=O)c4ccccc4)C[C@@H](CO[Si](C)(C)C(C)(C)C)O3)c(Cl)c2c1`: 14 µM.

The inhibition is how much of the control response was suppressed. Read a low inhibition as little suppression. The term IC50 denotes the concentration at which inhibition is half-maximal.

For the origin of these results see ChEMBL document CHEMBL1151524, “Synthesis and evaluation of pyrazolo[3,4-b]quinoline ribofuranosides and their derivatives as inhibitors of oncogenic Ras” (Bioorg Med Chem Lett, 1996).
